The record followed here is patent US20240300932A1, “N-PHENYLIMINE DERIVATIVE AND PREPARATION METHOD AND USE THEREOF” (Guizhou University, priority 2023, published 2024).

Holding throughout (assay): Post-emergence herbicidal activity test (stem and leaf spray, pot culture)
Format in all cases: in vivo
Common to all, as to conditions: 3 weeks after spraying

The test system of one assay is Setaria viridis. The method, boiled down:
(§1)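 Foliar spray, 2–3-leaf stage, 10/5/2.5 g/mu; acetone/Tween 80 + methyl oleate 1.5 L/ha. Greenhouse 3 wk, 20–30 °C. Score: fresh-wt control, grade 5 ≥85% … grade 0 <5%.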

The test system of the next assay is Abutilon theophrasti. In a few lines:
as §1

The next assay deals with Echinochloa crusgalli. In a few lines:
as §1

The next assay has as its system Portulaca oleracea. The method, boiled down:
as §1

A further assay relates to Amaranthus retroflexus. In a few lines:
as §1

Another assay deals with Trifoliumre pensL. The method, boiled down:
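Pot-grown weeds in loam (pH 7), greenhouse at 20–30 °C, sprayed once post-emergence at the 2–3-leaf stage. Compound in acetone with Tween 80 plus methyl oleate oil (1.5 L/ha), applied at 10, 5 and 2.5 g/mu by spray tower. Effect scored 3 weeks after spraying, averaged over three repeats.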

For the compound `O=C1C2=C(CCCC2)C(=O)N1c1cc(OCc2nnc(-c3ccc(Br)cc3)o2)c(Cl)cc1F` [Compound B16], the “Post-emergence herbicidal activity, S. viridis (grade)” value in the assay with Setaria viridis (dosage 2.5 g/mu) is 2 (Grade 2: the growth control rate is greater than or equal to 20% and less than 40%); in the assay with Setaria viridis (dosage 5 g/mu), 3 (Grade 3: the growth control rate is greater than or equal to 40% and less than 60%); with Setaria viridis (dosage 10 g/mu), 4 (Grade 4: the growth control rate is greater than or equal to 60% and less than 85%). The “Post-emergence herbicidal activity, A. theophrasti (grade)” value in the assay on Abutilon theophrasti (dosage 2.5 g/mu), in the assay with Abutilon theophrasti (dosage 5 g/mu) and in the assay with Abutilon theophrasti (dosage 10 g/mu) was 5 (Grade 5: the growth control rate is greater than or equal to 85%) throughout. For the same compound, the “Post-emergence herbicidal activity, E. crusgalli (grade)” value was 1 (Grade 1: the growth control rate is greater than or equal to 5% and less than 20%) in the assay with Echinochloa crusgalli (dosage 2.5 g/mu); 2 (Grade 2: the growth control rate is greater than or equal to 20% and less than 40%) in the assay with Echinochloa crusgalli (dosage 5 g/mu); 3 (Grade 3: the growth control rate is greater than or equal to 40% and less than 60%) in the assay on Echinochloa crusgalli (dosage 10 g/mu). For the same compound, the “Post-emergence herbicidal activity, P. oleracea (grade)” value with Portulaca oleracea (dosage 2.5 g/mu), in the assay on Portulaca oleracea (dosage 5 g/mu) and in the assay with Portulaca oleracea (dosage 10 g/mu) was 5 (Grade 5: the growth control rate is greater than or equal to 85%) each time. Also, the “Post-emergence herbicidal activity, A. retroflexus (grade)” value in the assay with Amaranthus retroflexus (dosage 2.5 g/mu), with Amaranthus retroflexus (dosage 5 g/mu) and in the assay on Amaranthus retroflexus (dosage 10 g/mu) was 5 (Grade 5: the growth control rate is greater than or equal to 85%) each time. Besides, the “Post-emergence herbicidal activity, Trifoliumre pensL. (grade)” value with Trifoliumre pensL. (dosage 2.5 g/mu), in the assay on Trifoliumre pensL. (dosage 5 g/mu) and with Trifoliumre pensL. (dosage 10 g/mu) was 5 (Grade 5: the growth control rate is greater than or equal to 85%) in each case.
As for `O=C1C2=C(CCCC2)C(=O)N1c1cc(OCc2nnc(-c3ccc(I)cc3)o2)c(Cl)cc1F` [Compound B17], the “Post-emergence herbicidal activity, S. viridis (grade)” value with Setaria viridis (dosage 2.5 g/mu) was 2 (Grade 2: the growth control rate is greater than or equal to 20% and less than 40%); in the assay with Setaria viridis (dosage 5 g/mu) it was 3 (Grade 3: the growth control rate is greater than or equal to 40% and less than 60%); in the assay with Setaria viridis (dosage 10 g/mu), 4 (Grade 4: the growth control rate is greater than or equal to 60% and less than 85%). The “Post-emergence herbicidal activity, A. theophrasti (grade)” value in the assay on Abutilon theophrasti (dosage 2.5 g/mu), with Abutilon theophrasti (dosage 5 g/mu) and in the assay with Abutilon theophrasti (dosage 10 g/mu) was 5 (Grade 5: the growth control rate is greater than or equal to 85%) throughout. The “Post-emergence herbicidal activity, E. crusgalli (grade)” value with Echinochloa crusgalli (dosage 2.5 g/mu) was 1 (Grade 1: the growth control rate is greater than or equal to 5% and less than 20%); in the assay with Echinochloa crusgalli (dosage 5 g/mu) it was 2 (Grade 2: the growth control rate is greater than or equal to 20% and less than 40%); in the assay on Echinochloa crusgalli (dosage 10 g/mu), 3 (Grade 3: the growth control rate is greater than or equal to 40% and less than 60%). For the same compound, the “Post-emergence herbicidal activity, P. oleracea (grade)” value in the assay with Portulaca oleracea (dosage 2.5 g/mu), with Portulaca oleracea (dosage 5 g/mu) and in the assay with Portulaca oleracea (dosage 10 g/mu) was 5 (Grade 5: the growth control rate is greater than or equal to 85%) in each case. Also, the “Post-emergence herbicidal activity, A. retroflexus (grade)” value in the assay on Amaranthus retroflexus (dosage 2.5 g/mu), in the assay on Amaranthus retroflexus (dosage 5 g/mu) and with Amaranthus retroflexus (dosage 10 g/mu) was 5 (Grade 5: the growth control rate is greater than or equal to 85%) throughout. Moreover, the “Post-emergence herbicidal activity, Trifoliumre pensL. (grade)” value in the assay with Trifoliumre pensL. (dosage 2.5 g/mu), with Trifoliumre pensL. (dosage 5 g/mu) and in the assay on Trifoliumre pensL. (dosage 10 g/mu) was 5 (Grade 5: the growth control rate is greater than or equal to 85%) throughout.
Take `O=C1C2=C(CCCC2)C(=O)N1c1cc(OCc2nnc(-c3ccc([N+](=O)[O-])cc3)o2)c(Cl)cc1F` [Compound B18]: the “Post-emergence herbicidal activity, S. viridis (grade)” value with Setaria viridis (dosage 2.5 g/mu) was 2 (Grade 2: the growth control rate is greater than or equal to 20% and less than 40%); in the assay with Setaria viridis (dosage 5 g/mu), 3 (Grade 3: the growth control rate is greater than or equal to 40% and less than 60%); in the assay on Setaria viridis (dosage 10 g/mu) it was 4 (Grade 4: the growth control rate is greater than or equal to 60% and less than 85%). Moreover, the “Post-emergence herbicidal activity, A. theophrasti (grade)” value was 4 (Grade 4: the growth control rate is greater than or equal to 60% and less than 85%) in the assay on Abutilon theophrasti (dosage 2.5 g/mu); 5 (Grade 5: the growth control rate is greater than or equal to 85%) in the assay on Abutilon theophrasti (dosage 5 g/mu); 5 (Grade 5: the growth control rate is greater than or equal to 85%) in the assay with Abutilon theophrasti (dosage 10 g/mu). The “Post-emergence herbicidal activity, E. crusgalli (grade)” value in the assay with Echinochloa crusgalli (dosage 2.5 g/mu) was 1 (Grade 1: the growth control rate is greater than or equal to 5% and less than 20%); in the assay with Echinochloa crusgalli (dosage 5 g/mu), 2 (Grade 2: the growth control rate is greater than or equal to 20% and less than 40%); in the assay with Echinochloa crusgalli (dosage 10 g/mu), 3 (Grade 3: the growth control rate is greater than or equal to 40% and less than 60%). Also, the “Post-emergence herbicidal activity, P. oleracea (grade)” value was 4 (Grade 4: the growth control rate is greater than or equal to 60% and less than 85%) with Portulaca oleracea (dosage 2.5 g/mu); 5 (Grade 5: the growth control rate is greater than or equal to 85%) with Portulaca oleracea (dosage 5 g/mu); 5 (Grade 5: the growth control rate is greater than or equal to 85%) in the assay with Portulaca oleracea (dosage 10 g/mu). The “Post-emergence herbicidal activity, A. retroflexus (grade)” value in the assay with Amaranthus retroflexus (dosage 2.5 g/mu), in the assay on Amaranthus retroflexus (dosage 5 g/mu) and in the assay with Amaranthus retroflexus (dosage 10 g/mu) was 5 (Grade 5: the growth control rate is greater than or equal to 85%) in each case. In addition, the “Post-emergence herbicidal activity, Trifoliumre pensL. (grade)” value in the assay on Trifoliumre pensL. (dosage 2.5 g/mu), with Trifoliumre pensL. (dosage 5 g/mu) and with Trifoliumre pensL. (dosage 10 g/mu) was 5 (Grade 5: the growth control rate is greater than or equal to 85%) in each case.
As to `O=C1C2=C(CCCC2)C(=O)N1c1cc(OCc2nnc(-c3ccc(Cl)cc3F)o2)c(Cl)cc1F` [Compound B19], the “Post-emergence herbicidal activity, S. viridis (grade)” value was 2 (Grade 2: the growth control rate is greater than or equal to 20% and less than 40%) in the assay on Setaria viridis (dosage 2.5 g/mu); 3 (Grade 3: the growth control rate is greater than or equal to 40% and less than 60%) in the assay with Setaria viridis (dosage 5 g/mu); 4 (Grade 4: the growth control rate is greater than or equal to 60% and less than 85%) in the assay with Setaria viridis (dosage 10 g/mu). Moreover, the “Post-emergence herbicidal activity, A. theophrasti (grade)” value with Abutilon theophrasti (dosage 2.5 g/mu), in the assay with Abutilon theophrasti (dosage 5 g/mu) and in the assay on Abutilon theophrasti (dosage 10 g/mu) was 5 (Grade 5: the growth control rate is greater than or equal to 85%) in each case. The “Post-emergence herbicidal activity, E. crusgalli (grade)” value with Echinochloa crusgalli (dosage 2.5 g/mu) is 1 (Grade 1: the growth control rate is greater than or equal to 5% and less than 20%); in the assay with Echinochloa crusgalli (dosage 5 g/mu), 2 (Grade 2: the growth control rate is greater than or equal to 20% and less than 40%); in the assay on Echinochloa crusgalli (dosage 10 g/mu) it was 3 (Grade 3: the growth control rate is greater than or equal to 40% and less than 60%). Besides, the “Post-emergence herbicidal activity, P. oleracea (grade)” value with Portulaca oleracea (dosage 2.5 g/mu), in the assay on Portulaca oleracea (dosage 5 g/mu) and with Portulaca oleracea (dosage 10 g/mu) was 5 (Grade 5: the growth control rate is greater than or equal to 85%) each time. The “Post-emergence herbicidal activity, A. retroflexus (grade)” value in the assay on Amaranthus retroflexus (dosage 2.5 g/mu), in the assay on Amaranthus retroflexus (dosage 5 g/mu) and with Amaranthus retroflexus (dosage 10 g/mu) was 5 (Grade 5: the growth control rate is greater than or equal to 85%) throughout. Besides, the “Post-emergence herbicidal activity, Trifoliumre pensL. (grade)” value in the assay on Trifoliumre pensL. (dosage 2.5 g/mu), in the assay with Trifoliumre pensL. (dosage 5 g/mu) and in the assay with Trifoliumre pensL. (dosage 10 g/mu) was 5 (Grade 5: the growth control rate is greater than or equal to 85%) each time.
